According to PubChem BioAssay (NCI):
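Method: 48-hour compound exposure of cells in 96-well plates, five concentrations, linear interpolation of endpoints. TGI: concentration producing complete growth inhibition.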

Tests used:
Assay in all cases: DTP human tumour cell line panel, 48 h
[1] = system: HOP-62 NSCLC
[2] = system: 786-0 renal
[3] = system: RPMI-8226 leukemia
[4] = system: OVCAR-8 ovarian
[5] = system: SF-268 CNS
[6] = system: SNB-19 CNS
[7] = system: NCI-H522 lung
[8] = system: IGROV1 ovarian
[9] = system: HOP-92 NSCLC
[10] = system: TK-10 renal

Structure (SMILES): CC1(C)C2CCC1(C)C(N/C(=C(/C(Cl)=C(Cl)Cl)[N+](=O)[O-])n1nnc3ccccc31)C2 (configuration not stated)
- TGI [1]: 67 µM
- TGI [2]: > 100 µM
- TGI [3]: > 100 µM
- TGI [4]: > 100 µM
- TGI [5]: 37.9 µM
- TGI [6]: 55.7 µM

Structure (SMILES): CSc1nc2c(c(=O)n1C)N=C(c1ccc(Cl)cc1)CC(c1ccccc1)N2 (configuration not stated)
- TGI [1]: 71.4 µM
- TGI [7]: 47.9 µM
- TGI [2]: > 100 µM
- TGI [3]: 47.8 µM
- TGI [4]: > 100 µM
- TGI [8]: 55.4 µM
- TGI [9]: > 100 µM
- TGI [6]: > 100 µM

Structure (SMILES): CCN(CC)c1ccc(/C=c2\nc(-c3ccccc3)n3c2nc2ccccc23)cc1
- TGI [1]: 68.6 µM
- TGI [2]: > 100 µM
- TGI [3]: 6.3 µM
- TGI [4]: > 100 µM
- TGI [5]: > 100 µM
- TGI [10]: > 100 µM
- TGI [8]: > 100 µM
- TGI [9]: > 100 µM
- TGI [6]: > 100 µM

Structure (SMILES): COc1cc2c(cc1OC)C1=Cc3ccc(OC)c(OC)c3C(C#N)N1CC2 (configuration not stated)
- TGI [1]: > 100 µM
- TGI [7]: > 100 µM
- TGI [2]: > 100 µM
- TGI [3]: 76.3 µM
- TGI [5]: > 100 µM
- TGI [10]: > 100 µM
- TGI [6]: > 100 µM

Structure (SMILES): CC1(CCc2ccccc2)CC1(Br)Br (configuration not stated)
- TGI [1]: > 100 µM
- TGI [7]: 61.5 µM
- TGI [2]: 57.5 µM
- TGI [3]: 44.8 µM
- TGI [4]: 50.8 µM
- TGI [5]: > 100 µM
- TGI [8]: > 100 µM
- TGI [9]: 60.2 µM
- TGI [6]: > 100 µM

Structure (SMILES): Cc1c(C)c2c(c(N)c1C#N)C(=O)N(OS(=O)(=O)c1ccccc1)C2=O
- TGI [7]: 34 µM
- TGI [2]: 30.3 µM
- TGI [3]: 37.8 µM
- TGI [4]: 38.6 µM
- TGI [5]: > 100 µM
- TGI [10]: 37.2 µM
- TGI [8]: 37.7 µM
- TGI [9]: 35.2 µM
- TGI [6]: > 100 µM

Structure (SMILES): O=C1C=C(N2CCCC2)C(=O)c2c(O)ccc(O)c21
- TGI [1]: > 10 µM
- TGI [2]: > 10 µM
- TGI [4]: > 10 µM
- TGI [5]: > 10 µM
- TGI [10]: > 10 µM
- TGI [8]: > 10 µM
- TGI [9]: > 10 µM
- TGI [6]: > 10 µM

Structure (SMILES): Nc1nc2cc(CNc3ccc(C(=O)O)cc3)ccc2nc1-c1ccccc1
- TGI [1]: > 100 µM
- TGI [7]: > 100 µM
- TGI [2]: > 100 µM
- TGI [3]: > 100 µM
- TGI [4]: > 100 µM
- TGI [5]: > 100 µM
- TGI [10]: > 100 µM
- TGI [8]: > 100 µM
- TGI [6]: > 100 µM

Structure (SMILES): OCc1c2c(cc3c1CC1(C3)Cc3cc4c(c(CO)c3C1)CCC4)CCC2
- TGI [1]: 29.6 µM
- TGI [7]: 28.5 µM
- TGI [2]: 27.7 µM
- TGI [3]: 47.5 µM
- TGI [4]: 38 µM
- TGI [10]: 36.2 µM
- TGI [8]: 30.2 µM
- TGI [9]: 33.1 µM

Structure (SMILES): Cc1c(NC(=S)N/N=C\C(=N/NC(=S)Nc2c(C)n(C)n(-c3ccccc3)c2=O)c2ccccc2)c(=O)n(-c2ccccc2)n1C
- TGI [1]: > 100 µM
- TGI [2]: > 100 µM
- TGI [5]: > 100 µM
- TGI [10]: > 100 µM
- TGI [9]: > 100 µM
- TGI [6]: > 100 µM

Structure (SMILES): c1ccc2c(c1)nc1n2CCNC1
- TGI [1]: > 100 µM
- TGI [2]: > 100 µM
- TGI [3]: > 100 µM
- TGI [4]: > 100 µM
- TGI [5]: > 100 µM
- TGI [10]: > 100 µM
- TGI [8]: > 100 µM
- TGI [9]: > 100 µM
- TGI [6]: > 100 µM

Structure (SMILES): O=c1c(/C=C/c2c(O)ccc3ccccc23)nnc2sc(-c3cccc([N+](=O)[O-])c3)nn12
- TGI [1]: > 100 µM
- TGI [7]: 28.1 µM
- TGI [2]: > 100 µM
- TGI [3]: > 100 µM
- TGI [4]: > 100 µM
- TGI [5]: 89.8 µM
- TGI [10]: 89.3 µM
- TGI [8]: > 100 µM
- TGI [9]: > 100 µM

Structure (SMILES): CC(=O)N1CC(C)(C)c2c1cc(C)c(O)c2C
- TGI [1]: > 100 µM
- TGI [7]: > 100 µM
- TGI [2]: > 100 µM
- TGI [3]: > 100 µM
- TGI [4]: > 100 µM
- TGI [5]: > 100 µM
- TGI [10]: > 100 µM
- TGI [8]: > 100 µM
- TGI [6]: > 100 µM

Structure (SMILES): NNC(=Nc1ccccc1)SCc1ccccc1
- TGI [1]: > 100 µM
- TGI [7]: > 100 µM
- TGI [2]: > 100 µM
- TGI [3]: > 100 µM
- TGI [4]: > 100 µM
- TGI [8]: > 100 µM
- TGI [9]: > 100 µM
- TGI [6]: > 100 µM

Structure (SMILES): O=c1[nH]c(=S)c2cc3c(=S)[nH]c(=O)n(CCC(c4ccccc4)(c4ccccc4)c4ccccc4)c3nc2n1CCC(c1ccccc1)(c1ccccc1)c1ccccc1
- TGI [1]: > 100 µM
- TGI [7]: > 100 µM
- TGI [2]: > 100 µM
- TGI [3]: > 100 µM
- TGI [5]: > 100 µM
- TGI [10]: > 100 µM
- TGI [9]: > 100 µM
- TGI [6]: > 100 µM

Structure (SMILES): CCOC(=O)CN=C1Nc2ccccc2C(=O)N2CSCC12 (configuration not stated)
- TGI [1]: > 100 µM
- TGI [7]: > 100 µM
- TGI [2]: > 100 µM
- TGI [3]: > 100 µM
- TGI [4]: > 100 µM
- TGI [5]: > 100 µM
- TGI [10]: > 100 µM
- TGI [8]: > 100 µM
- TGI [6]: > 100 µM

Structure (SMILES): c1nncn1C12C3C4C5C3C1C5C42 (configuration not stated)
- TGI [1]: > 100 µM
- TGI [7]: > 100 µM
- TGI [2]: > 100 µM
- TGI [3]: > 100 µM
- TGI [4]: > 100 µM
- TGI [5]: > 100 µM
- TGI [10]: > 100 µM
- TGI [8]: > 100 µM
- TGI [6]: > 100 µM

Structure (SMILES): CC(C)=NNc1cnnc2ccc([N+](=O)[O-])cc12
- TGI [7]: 52 µM
- TGI [2]: > 100 µM
- TGI [3]: > 100 µM
- TGI [4]: > 100 µM
- TGI [5]: > 100 µM
- TGI [8]: > 100 µM
- TGI [9]: > 100 µM
- TGI [6]: > 100 µM

Structure (SMILES): CCn1nc(-c2ccccc2)c2c1N(C)c1ccccc1-n1c(-c3ccccc3)nnc1-2
- TGI [1]: 32.2 µM
- TGI [2]: 30.6 µM
- TGI [3]: > 100 µM
- TGI [4]: 62.3 µM
- TGI [5]: 32.5 µM
- TGI [10]: 31.1 µM
- TGI [8]: 40.3 µM
- TGI [9]: 35.9 µM
- TGI [6]: 32.4 µM

Structure (SMILES): COc1ccc2c(c1)C1Oc3ccccc3CC1(O)CO2 (configuration not stated)
- TGI [1]: > 100 µM
- TGI [7]: > 100 µM
- TGI [2]: > 100 µM
- TGI [3]: > 100 µM
- TGI [4]: > 100 µM
- TGI [5]: > 100 µM
- TGI [10]: > 100 µM
- TGI [8]: > 100 µM
- TGI [9]: > 100 µM

Structure (SMILES): CN1c2ccccc2C(=O)NC12CCN(Cc1ccccc1)CC2
- TGI [1]: > 100 µM
- TGI [2]: > 100 µM
- TGI [3]: > 100 µM
- TGI [4]: > 100 µM
- TGI [5]: > 100 µM
- TGI [10]: > 100 µM
- TGI [8]: > 100 µM
- TGI [9]: 98.5 µM
- TGI [6]: > 100 µM

Structure (SMILES): CCOC(=O)c1[nH]cnc1/N=N/N(C)N
- TGI [1]: > 100 µM
- TGI [7]: 78.7 µM
- TGI [2]: > 100 µM
- TGI [3]: > 100 µM
- TGI [4]: > 100 µM
- TGI [5]: > 100 µM
- TGI [10]: > 100 µM
- TGI [8]: > 100 µM

Structure (SMILES): CC1(C)CC(=O)C2=C(C1)NC(SCC(=O)O)=C(C#N)C2c1ccc(Br)cc1 (configuration not stated)
- TGI [1]: > 100 µM
- TGI [7]: > 100 µM
- TGI [2]: > 100 µM
- TGI [4]: > 100 µM
- TGI [5]: > 100 µM
- TGI [10]: > 100 µM
- TGI [8]: > 100 µM
- TGI [9]: > 100 µM
- TGI [6]: > 100 µM
